# Measurements reported in US20260250289A1, “BICYCLIC HETEROCYCLES AND THEIR USE AS WRN INHIBITORS” (Novartis AG, priority 2022, published 2026).
# Assays:
# DLD1-WRN-KO cells = assay: Proliferation assay DLD1-WRN-KO (CellTiterGlo, off-target effects); assay type: cell-based; settings: 96 hours, geometric mean of at least 2
# Method: The WRN-knockdown insensitive colon carcinoma cell line DLD-1 (RRID: CVCL_0248) was obtained from the Korean Cell Line Bank (KCLB), and used to generate a derivative in which the endogenous WRN gene copies were knocked out by CRISPR-mediated editing using standard CRISPR methods. The resulting cell line, DLD1-WRN-KO, was used to assess potential off-target compound effects. […]
# Three replicate plates were prepared for each compound treatment condition. In addition, one plate (termed “day 0”) was prepared to quantify the number of viable cells at the time of compound addition. Following overnight incubation at 37° C. in a humidified 5% CO2 atmosphere, eight 3-fold serial dilutions of a given compound stock (obtained at a concentration of 10 mM in DMSO and stored at 4° C.) were dispensed directly into each of the triplicate assay plates using a HP 300D non-contact Digital Dispenser (TECAN). The final concentration of DMSO was normalized to 0.1% in all wells. 96 hours after compound addition, cellular ATP levels as a surrogate for cell viability was assessed following addition of 50 microliters CellTiterGlo (Promega Cat #G7573) reagent and luminescence quantification on a MPLEX multi-mode plate-reader (TECAN) following a 10 minute incubation at room temperature. The number of viable cells in the “day 0” plate were quantified identically on the day of compound addition.
# For data analysis, the assay background signal that was determined in wells containing medium, but no cells, was subtracted from all other data points prior to further calculations. The extent of growth inhibition and potential cell kill was assessed by comparing the ATP levels (measured using CellTiterGlo, Promega) in compound-treated cells with those present at the time of compound addition. […] 100%, 0% and −100% signify absence of growth inhibition, growth stasis, and complete cell kill, respectively. Compound concentrations leading to half-maximal growth inhibition (GI50) and residual cell viability at the highest tested compound concentration (Data (cmax), expressed in percent) were routinely calculated. Data analysis can also be carried out using commercially available software designed to derive IC50 values using 4-parameter fits (e.g. GraphPad Prism, XL fit). The reported GI50 values are the geometrical means of at least 2 independent replicates.
# [1] = target: T1, WRN helicase (aa N517-P1238) (Homo sapiens, UniProt Q14191); assay: WRN ATPase assay (DNA dependent ATP hydrolysis, ADP-Glo); assay type: biochemical; settings: 3 hours pre-incubation, 300 micromolar ATP, FLAP26 DNA; geometric mean of at least 2
# T1 construct: The core helicase motif of the WRN protein (aa N517-P1238) was produced for this assay; His (N); ZZ (N); 3C protease cleavage site (N); made in house; host or cells: Sf21 insect cells (baculovirus; virus and BIICs made in SF9)
# T1 sequence (Q14191 517-1238): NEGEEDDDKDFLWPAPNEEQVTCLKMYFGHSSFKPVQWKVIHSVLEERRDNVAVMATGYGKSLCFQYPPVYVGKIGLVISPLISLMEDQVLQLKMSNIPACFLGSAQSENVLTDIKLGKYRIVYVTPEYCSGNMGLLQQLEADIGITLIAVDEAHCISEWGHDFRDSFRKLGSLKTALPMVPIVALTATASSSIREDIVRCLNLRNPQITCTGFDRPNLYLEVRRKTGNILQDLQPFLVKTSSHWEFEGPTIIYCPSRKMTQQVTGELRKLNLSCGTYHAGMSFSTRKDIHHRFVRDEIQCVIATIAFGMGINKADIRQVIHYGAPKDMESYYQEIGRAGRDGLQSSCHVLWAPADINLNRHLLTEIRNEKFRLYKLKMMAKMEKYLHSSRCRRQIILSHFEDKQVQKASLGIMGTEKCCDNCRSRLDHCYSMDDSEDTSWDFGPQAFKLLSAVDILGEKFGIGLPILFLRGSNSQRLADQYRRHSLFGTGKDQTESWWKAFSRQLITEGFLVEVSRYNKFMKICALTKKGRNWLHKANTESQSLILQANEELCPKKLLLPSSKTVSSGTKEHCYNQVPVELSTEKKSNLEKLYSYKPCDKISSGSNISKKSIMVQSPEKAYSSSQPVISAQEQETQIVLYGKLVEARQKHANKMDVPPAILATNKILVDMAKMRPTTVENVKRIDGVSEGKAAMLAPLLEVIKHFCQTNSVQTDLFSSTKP
# Text: An ATPase assay was set up to measure the DNA dependent ATP hydrolysis activity of WRN helicase. This assay was used also to assess the inhibition properties of compounds of the invention on DNA dependent WRN ATPase activity.
# The core helicase motif of the WRN protein (aa N517-P1238) was produced for this assay (protein production as described above). […] The ADP-Glo assay kit (Promega, Madison, WI) allowing the quantification of ADP produced in ATP hydrolysis reactions was used for setting up this assay.
# Time course experiments were first performed in order to determine the best enzymatic assay conditions (including buffer conditions, reaction time and concentrations of protein, ATP and DNA substrates). A typical reaction consists of 10 nM WRN protein, 0.2 nM FLAP26, and 300 micromolar ATP in the following assay buffer: 30 mM Tris pH7.5, 2 mM MgCl2, 0.02% BSA, 50 mM NaCl, 0.1% pluronic F127 prepared in DNAse free water.
# To evaluate the inhibition properties of compounds of the invention, serial dilutions were prepared in DMSO (10 half log dilutions from a 10 mM DMSO solution). […] The reaction was stopped with the addition of 5 microliters of the first ADP-Glo reagent and incubated for one hour to remove the excess amount of ATP. Afterwards, 10 microliters of ATP detection reagent was added and incubated for an additional hour before reading. Luminescence output was recorded using Tecan 1000 reader, with 5 minutes delay before reading. Each concentration of compound was tested in duplicates in the assay plate.
# Following normalization of activity values for the wells to % inhibition (% inhibition=[(high control-sample)/(high control-low control)]×100), IC50 fitting was carried out from the duplicate determinations present on each plate according to [4]. Data analysis can also be carried out using commercially available software designed to derive IC50 values using 4-parameter fits (e.g. GraphPad Prism, XL fit). The reported IC50 values are the geometrical means of at least 2 independent replicates.
SMILES,GI50 (DLD1-WRN-KO cells),IC50 [1]
"CC(=O)N1CCN(c2c(C)n(CC(=O)Nc3ccc(Cl)c(C(F)(F)F)c3)c3nc(C4=CCN(C(=O)OC(C)(C)C)CC4)nn3c2=O)CC1 [Example 74, tert-butyl 4-(6-(4-acetylpiperazin-1-yl)-4-(2-((4-chloro-3-(trifluoromethyl)phenyl)amino)-2-oxoethyl)-5-methyl-7-oxo-4,7-dihydro-[1,2,4]triazolo[1,5-a]pyrimidin-2-yl)-5,6-dihydropyridine-1(2H)-carboxylate]",600 nM,200 nM
"CC(=O)N1CCN(c2c(C)n(CC(=O)Nc3ccc(Cl)c(Cl)c3)c3nc(-c4ccc(CN(C)C(=O)CCN=[N+]=[N-])cc4)nn3c2=O)CC1 [Example 86, N-(4-(6-(4-acetylpiperazin-1-yl)-4-(2-((3,4-dichlorophenyl)amino)-2-oxoethyl)-5-methyl-7-oxo-4,7-dihydro-[1,2,4]triazolo[1,5-a]pyrimidin-2-yl)benzyl)-3-azido-N-methylpropanamide]",> 10000 nM,70 nM
"CC(=O)N1CCN(c2c(C)n(CC(=O)Nc3ccc(Cl)c(Cl)c3)c3nc(C4=CCN(C(=O)OC5CC/C=C/CCC5)CC4)nn3c2=O)CC1 (stereo not drawn) [Example 93, (E)-cyclooct-4-en-1-yl 4-(6-(4-acetylpiperazin-1-yl)-4-(2-((3,4-dichlorophenyl)amino)-2-oxoethyl)-5-methyl-7-oxo-4,7-dihydro-[1,2,4]triazolo[1,5-a]pyrimidin-2-yl)-3,6-dihydropyridine-1(2H)-carboxylate]",5000 nM,700 nM
"CC(=O)N1CCC(c2c(C)n(CC(=O)Nc3ccc(C(F)(F)F)cc3)c3nc(-c4ccccc4)nn3c2=O)CC1 [Example 143, 2-(6-(1-acetylpiperidin-4-yl)-5-methyl-7-oxo-2-phenyl-[1,2,4]triazolo[1,5-a]pyrimidin-4(7H)-yl)-N-(4-(trifluoromethyl)phenyl) acetamide]",> 10000 nM,
"COc1cc(F)cc(C(=O)N2CCN(c3c(C)n(CC(=O)Nc4ccc(C(F)(F)F)cc4)c4nc(C5=CCOCC5)nn4c3=O)CC2)c1N [Example 153, 2-(6-(4-(2-amino-5-fluoro-3-methoxybenzoyl)piperazin-1-yl)-2-(3,6-dihydro-2H-pyran-4-yl)-5-methyl-7-oxo-[1,2,4]triazolo[1,5-a]pyrimidin-4(7H)-yl)-N-(4-(trifluoromethyl)phenyl)acetamide]",5000 nM,100 nM
"Cc1c(N2CCN(C(=O)c3n[nH]c4ccccc34)CC2)c(=O)n2nc(C3=CCOCC3)nc2n1CC(=O)Nc1ccc(C(F)(F)F)cc1 [Example 154, 2-(6-(4-(1H-indazole-3-carbonyl)piperazin-1-yl)-2-(3,6-dihydro-2H-pyran-4-yl)-5-methyl-7-oxo-[1,2,4]triazolo[1,5-a]pyrimidin-4(7H)-yl)-N-(4-(trifluoromethyl)phenyl)acetamide]",8000 nM,100 nM

# Second part, the compound after the results:
GI50 (DLD1-WRN-KO cells),IC50 [1],SMILES
> 10000 nM,40 nM,"CC(=O)N1CCN(c2nc3n(CC(=O)Nc4ccc(Cl)cc4)c(C)c(N4CCN(C(=O)c5nc[nH]c5C#N)CC4)c(=O)n3n2)CC1 [Example 7, 2-(2-(4-acetylpiperazin-1-yl)-6-(4-(5-cyano-1H-imidazole-4-carbonyl)piperazin-1-yl)-5-methyl-7-oxo-[1,2,4]triazolo[1,5-a]pyrimidin-4(7H)-yl)-N-(4-chlorophenyl)acetamide]"
> 10000 nM,50 nM,"CC(=O)N1CCN(c2nc3n(CC(=O)Nc4ccc(Cl)cc4)c(C)c(N4CCN(C(=O)c5n[nH]c(=O)[nH]5)CC4)c(=O)n3n2)CC1 [Example 8, 2-(2-(4-acetylpiperazin-1-yl)-5-methyl-7-oxo-6-(4-(5-oxo-4,5-dihydro-1H-1,2,4-triazole-3-carbonyl)piperazin-1-yl)-[1,2,4]triazolo[1,5-a]pyrimidin-4(7H)-yl)-N-(4-chlorophenyl)acetamide]"
> 10000 nM,80 nM,"CC(=O)N1CCN(c2nc3n(CC(=O)Nc4ccc(Cl)cc4)c(C)c(N4CCN(C(=O)c5cnon5)CC4)c(=O)n3n2)CC1 [Example 9, 2-(6-(4-(1,2,5-oxadiazole-3-carbonyl)piperazin-1-yl)-2-(4-acetylpiperazin-1-yl)-5-methyl-7-oxo-[1,2,4]triazolo[1,5-a]pyrimidin-4(7H)-yl)-N-(4-chlorophenyl)acetamide]"
> 10000 nM,90 nM,"CC(=O)N1CCN(c2nc3n(CC(=O)Nc4ccc(Cl)cc4)c(C)c(N4CCN(C(=O)c5[nH]c(=O)[nH]c(=O)c5N)CC4)c(=O)n3n2)CC1 [Example 10, 2-(2-(4-acetylpiperazin-1-yl)-6-(4-(5-amino-2,6-dioxo-1,2,3,6-tetrahydropyrimidine-4-carbonyl)piperazin-1-yl)-5-methyl-7-oxo-[1,2,4]triazolo[1,5-a]pyrimidin-4(7H)-yl)-N-(4-chlorophenyl)acetamide]"
900 nM,200 nM,"CC(=O)N1CCN(c2c(C)n(CC(=O)Nc3ccc(Cl)c(Cl)c3)c3nc(C4=CCN(C(=O)OC(C)(C)C)CC4)nn3c2=O)CC1 [Example 75, tert-butyl 4-(6-(4-acetylpiperazin-1-yl)-4-(2-((3,4-dichlorophenyl)amino)-2-oxoethyl)-5-methyl-7-oxo-4,7-dihydro-[1,2,4]triazolo[1,5-a]pyrimidin-2-yl)-5,6-dihydropyridine-1(2H)-carboxylate]"
> 10000 nM,200 nM,"CC(=O)N1CCN(c2c(C)n(CC(=O)Nc3ccc(C(F)(F)F)cc3)c3nc(N4CCCCC4)nn3c2=O)CC1 [Example 111, 2-(6-(4-acetylpiperazin-1-yl)-5-methyl-7-oxo-2-(piperidin-1-yl)-[1,2,4]triazolo[1,5-a]pyrimidin-4(7H)-yl)-N-(4-(trifluoromethyl)phenyl)acetamide]"
5000 nM,500 nM,"CCOC(=O)C#Cc1nc2n(CC(=O)Nc3ccc(C(F)(F)F)cc3)c(C)c(N3CCN(C(C)=O)CC3)c(=O)n2n1 [Example 116, ethyl 3-(6-(4-acetylpiperazin-1-yl)-5-methyl-7-oxo-4-(2-oxo-2-((4-(trifluoromethyl)phenyl)amino)ethyl)-4,7-dihydro-[1,2,4]triazolo[1,5-a]pyrimidin-2-yl)propiolate]"
> 10000 nM,600 nM,"CC(=O)N1CCN(c2c(C)n(CC(=O)Nc3ccc(C(F)(F)F)cc3)c3nc(C4=CCC5(CCO5)CC4)nn3c2=O)CC1 (stereo not drawn) [Example 117, 2-(6-(4-acetylpiperazin-1-yl)-5-methyl-7-oxo-2-(1-oxaspiro[3.5]non-6-en-7-yl)-[1,2,4]triazolo[1,5-a]pyrimidin-4(7H)-yl)-N-(4-(trifluoromethyl)phenyl)acetamide]"
